In US20180344726A1, “ABUSE RESISTANT TRANSDERMAL DELIVERY DEVICES AND COMPOSITIONS COMPRISING AN OPIOID AGONIST AND A NON-TRANSDERMALLY DELIVERED N-OXIDE DERIVATIVE OF AN OPIOID ANTAGONIST FOR THE TREATMENT OF PAIN” (priority 2015, published 2018):

Experiments:
[1] = pKa analysis by pH-metric triple titration; format: physicochemical; conditions: […] C., […] KCl
Protocol: pKa analysis was performed using a pH-metric method. […] No precipitation or degradation was observed and two pKas were determined from the potentiometric data. Log P was determined using the potentiometric (pH-metric method). The sample was titrated in various ratios of octanol/water in two titrations covering the pH range 2.0-12.0 at concentrations of 1.9-1.1 mM. The shift of the aqueous pKas in the presence of octanol was used to determine the log P of the neutral species.

[2] = In vitro skin permeation from prototype transdermal patches (Franz cell); format: in vitro ADME, human; conditions: patches with naloxone N-oxide:opioid agonist 1:1, 3:1 or 5:1 by weight
Protocol: (§1) Naloxone N-oxide was incorporated into a prototype transdermal patch along with an opioid agonist. […] Batches of patches were prepared by weighing the appropriate amounts of the opioid agonist, Naloxone N-oxide and dry patch matrix of poly(meth)acrylate and dissolving in ethylacetate. The matrix solvent system was added and stirred for 30 minutes on a magnetic stirrer to yield a homogenous mixture. After mixing, the drug/polymer mixture was hand cast onto a release liner, Loparex Prime Liner FL 2000. Casting was carried out with a casting knife of variable width to achieve a target dry area weight matrix of 55 g/m^2. The cast was then dried at room temperature for 10 minutes, transferred to a convection oven and dried at 70° C. for 15 minutes and at 100° C. for 5 minutes. Finally the dried casts were hand-laminated with an occlusive backing, Scotchpak 9738, and patches were cut out of the laminate with 0.82 cm^2 cutting dies for skin permeation and 5 cm^2 for stability experiments.
The in vitro skin permeation of opioid agonist from each of the patches was tested using a Franz cell as described above.

[3] = Stability of prototype patches over 6 days at 60° C.; format: physicochemical
Protocol: as §1
The stability of each of the patches over 6 days at 60° C. was also tested.

C=CC[N+]1([O-])CC[C@]23c4c5ccc(O)c4O[C@H]2C(=O)CC[C@@]3(O)[C@H]1C5 (stereo partly shown) [Naloxone N-oxide]
pKa ([1]; Type Acid): 8.55 ± 0.01
pKa ([1]; Type Base): 2.96 ± 0.01
N-oxide permeated through the skin from patch [2]: no detectable levels
Impact on the stability of the patch [3]: does not impact on the stability of the patch
